The values that follow come from patent US9925153B2, “Therapeutic agents for skin diseases and conditions” (STC.UNM, priority 2013, dated 2018).

Test [1] relates to NF-κB. The test is described as follows: Inhibition of TNFα-induced activation of NF-κB, 293T/NF-κB-luc luciferase reporter cells. The test is classed as cell-based, human. Particulars: for Activity as inhibitor of TNFα-induced activation of NF-κB in the screen, in words: screened at 15 μM, compared to resveratrol; for IC50: Homo sapiens, HEK-293T. On the procedure:
The cells were maintained in Dulbecco's Modified Eagle's Medium (DMEM—high glucose containing 4 mM glutamine) supplemented with 10% fetal bovine serum (FBS), 1 mM sodium pyruvate, 100 units/ml penicillin, 100 μg/ml streptomycin and 100 μg/ml hygromycin (Gibco/Invitrogen, Carlsbad, Calif.) to maintain cell selection. […] The following day cells were fed fresh media 1 hour prior to treatment. […] Plate wells were gently washed with phosphate buffered saline, pH 7.4, and lysed with 1× passive lysis buffer (Promega, Madison, Wis.). The subsequent lysates were analyzed with the Luciferase Assay System (Promega) utilizing a TD-20/20 luminometer (Turner Designs, Sunnyvale, Calif.). The firefly luciferase relative light units were normalized to protein (mg/ml) with BCA™ Protein Assay Kit (Pierce, Rockford, Ill.) and standardized to percent of control (TNFα control).

A short description of test [2]: TRAP anti-oxidant assay (quenching of ABTS radical cation). From the text:
(§1) The total radical-trapping anti-oxidant parameter assay (TRAP assay) measures the ability of an analog to react with the pre-formed radical monocation of 2,2′-azinobis-(3-ethylbenzothiazoline-6-sulfonic acid) (ABTS.^+). The ferric reducing/anti-oxidant power assay (FRAP assay) measures the ability of an analog to reduce a ferric tripyridyltriazine complex.
(§2) In both colorimetric assays, the vitamin E analog Trolox was used as a control.
(§3) The anti-oxidant activities of certain stilbene analogs according to the present invention were determined using two standard assays. See, Schlesier, et al., Free Rad Res. 2002; 36:177-187. The total radical-trapping anti-oxidant parameter assay (TRAP assay) measures the ability of an analog to react with the pre-formed radical monocation of 2,2′-azinobis-(3-ethylbenzothiazoline-6-sulfonic acid) (ABTS.^+). See, Re, et al., Free Rad Biol Med, 26:1231-1237 (1999). […] The activities of curcumin and analogs were determined by their abilities to quench the color of the radical cation. […] The ferric complex of 2,4,6-tripyridyl-s-triazine was prepared at acidic pH, and the anti-oxidant activities of curcumin and analogs were determined by their abilities to reduce the ferric complex to the ferrous complex, monitored by formation of the ferrous complex at 593 nm. […]

Test [3] in a line: FRAP anti-oxidant assay (reduction of ferric tripyridyltriazine complex).
Text: as §1, §2, §3

A further test has as its system COX-2 mRNA. The test is described as follows: Inhibition of LPS-induced COX-2 mRNA expression in BV-2 microglial cells (qRT-PCR). The test is classed as cell-based, mouse. The settings on record: BV-2 cells, LPS 0.2 μg/ml, 24 hours; for Inhibition of LPS-induced COX-2 mRNA, in words: 0.15 μM.
In a further test the test system is AP-1. Description: Inhibition of TPA-induced activation of AP-1, 293T/AP-1-luc luciferase reporter cells. In kind it is cell-based, human. The settings on record: for IC50: Homo sapiens. As to the method:
An AP-1 reporter stable cell line derived from human 293T embryonic kidney cells transfected with a luciferase reporter construct containing three AP-1 binding sites in the promoter (293T/AP-1-luc, Panomics, Inc., Redwood City, Calif.) was grown in a humidified atmosphere at 37° C. in 5% CO2/95% air. The cells were maintained in Dulbecco's Modified Eagle's Medium (DMEM—high glucose containing 4 mM glutamine) supplemented with 10% fetal bovine serum (FBS), 1 mM sodium pyruvate, 100 units/ml penicillin, 100 μg/ml streptomycin and 100 μg/ml hygromycin (Gibco/Invitrogen, Carlsbad, Calif.) to maintain cell selection. One day prior to treatment, the 293T/AP-1-luc cells were plated into 24-well cell culture plates (Costar, Cambridge, Mass.) in the above media without hygromycin. The following day, the cells, which were at approximately 60% confluency, were fed fresh media with or without TPA, 10 ng/ml, (Calbiochem) and immediately treated with curcumin or analog prepared in DMSO stock solutions. The cells were placed again in a humidified atmosphere at 37° C. in 5% CO2/95% air for 24 hours. Plate wells were gently washed with phosphate buffered saline, pH 7.4, and lysed with Ix passive lysis buffer (Promega, Madison, Wis.). The subsequent lysates were analyzed with the Luciferase Assay System (Promega) utilizing a TD-20/20 luminometer (Turner Designs, Sunnyvale, Calif.). The firefly luciferase relative light units were normalized to protein (mg/ml) with BCA Protein Assay Kit (Pierce, Rockford, Ill.) and standardized to percent of control (TPA control).
Background: Reporter assays use an easily measured gene product as a stand-in for the process of interest.

Test [4] is described as follows: Treatment of dogs with inflammatory skin conditions with LD55. The test is classed as in vivo, dog. The text has this:
(§4) Table 3 summarizes the results from consecutive treatment with LD55 of dogs and cats with inflammatory skin conditions, where LD55 was applied as a 1% lotion.

Test [5] can be described thus: Treatment of cats with inflammatory skin conditions with LD55. In kind it is in vivo, cat. Particulars: for outcome: Feline.
Text: as §4

For test [6] the following is noted: transgenic model of Alzheimer's disease (ref. 10); cited from earlier work.
Test [7] concerns NF-κB. The settings on record: literature (ref. 35); cited from earlier work.
Setting [8] is: 7 h, 293T/NF-κB-luc cells, TNFα 20 ng/ml, 7 hours, triplicate, read-out: IC50 for inhibition of the TNFα-induced activation of NFκB.

Entries after “also recorded” stand apart in the source; their conditions may differ. Where two headings read alike, the source gives them in different places.

Regarding `COc1ccc(/C=C/c2ccccc2)cc1` [4b, (E)-4-Methoxystilbene], the “Activity as inhibitor of TNFα-induced activation of NF-κB in the screen, in words” value (shortened to “Activity as inhibitor”) in the test on NF-κB [1] is “especially active”.
`CN(C)c1ccc(/C=C/c2ccccc2)cc1` [4cc, (E)-4-N,N-Dimethylaminostilbene]: the 50% inhibitory concentration (IC50) in the test with NF-κB [1] (setting [8]) worked out at 150 nM. Also, the “Anti-oxidant activity in the TRAP assay, in words” value in [2] is listed as “retained anti-oxidant activity; also recorded: exhibits anti-oxidant activity”. Also, the “Anti-oxidant activity in the FRAP assay, in words” value in test [3] is given as “retained anti-oxidant activity; also recorded: exhibits anti-oxidant activity”. Moreover, in the test with COX-2 mRNA, the “Inhibition of LPS-induced COX-2 mRNA, in words” value is given as “almost as effective as 4 μM resveratrol”.
For `COc1cccc(/C=C/c2ccccc2)c1OC` [4o, (E)-2,3-Dimethoxystilbene], the “Activity as inhibitor” value in the test with NF-κB [1] was “retained very little activity”.
Regarding `COc1ccc(/C=C/c2ccccc2)cc1O` [4s, (E)-3-Hydroxy-4-methoxystilbene], the “Activity as inhibitor” value in the test on NF-κB [1] is recorded as “considerably more active than resveratrol”.
The same measure, in the same setting: to `COc1ccc(/C=C/c2ccccc2)c(OC)c1` [4u, (E)-2,4-Dimethoxystilbene] belongs “especially active”; to `COc1ccc(/C=C/c2ccc(OC)cc2)cc1` [6b, (E)-4,4′-Dimethoxystilbene], “retained very little activity”.
Take `COc1ccc(/C=C/c2ccc(C)cc2)cc1` [6d, (E)-4′-Methoxy-4-methylstilbene]: in the test with NF-κB [1] (setting [8]), the IC50 was found to be 900 ± 100 nM.
On to `COc1ccc(/C=C/c2cc(OC)cc(OC)c2)cc1` [6f, (E)-3,4′,5-Trimethoxystilbene], for which, in the test with NF-κB [1], the “Activity as inhibitor” value is listed as “especially active”. For the same compound, the IC50 with AP-1 (24 h, read-out: IC50 for inhibition of the TPA-induced activation of AP-1) worked out at 3800 ± 1100 nM.
On to `COc1ccc(/C=C/c2cccc(Cl)c2)cc1` [6h, (E)-3-Chloro-4′-methoxystilbene], for which the IC50 in the test with NF-κB [1] (setting [8]) amounted to 1000 ± 100 nM.
For the compound `COc1ccc(/C=C/c2cccc(C)c2)cc1` [6i, (E)-4′-Methoxy-3-methylstilbene], the IC50 in the test with NF-κB [1] (setting [8]) came out at 800 ± 200 nM.
Same read-out and setting: with `COc1ccc(/C=C/c2ccccc2Cl)cc1` [6j, (E)-2-Chloro-4′-methoxystilbene] the figure was 1500 ± 30 nM.
In the case of `COc1ccc(/C=C/c2cccc(OC)c2OC)cc1` [6o, (E)-2,3,4′-Trimethoxystilbene], in the test with NF-κB [1], the “Activity as inhibitor” value is “especially active”.
In the case of `COc1ccc(/C=C/c2ccccc2F)cc1` [6p, (E)-2-Fluoro-4′-methoxystilbene], the IC50 in the test with NF-κB [1] (setting [8]) stood at 150 nM. In addition, in [2], the “Anti-oxidant activity in the TRAP assay, in words” value was “does not exhibit anti-oxidant activity”. The “Anti-oxidant activity in the FRAP assay, in words” value in [3] is recorded as “does not exhibit anti-oxidant activity”. Moreover, in the test on COX-2 mRNA, the “Inhibition of LPS-induced COX-2 mRNA, in words” value is listed as “almost as effective as 4 μM resveratrol”. The outcome was “positive” in [4] (K9, Pempigus, 1% lotion); “positive” in test [4] (K9, atopy, 1% lotion); “positive” in test [4] (K9, hemangiosarcoma, 1% lotion); “positive” in test [4] (K9, hot spot, 1% lotion); “positive” in test [4] (K9, peri-analfistual, 1% lotion); “positive” in test [5] (atopy/ears, 1% lotion). In [5] (squamous cell carcinoma, 1% lotion), the outcome was “positive”. Also, the “Nasal planum lesion after treatment” value in [4] (animal 1139, daily application, after 10 applications) is “the region was healing, the dried, flaking skin was gone and there was no bleeding”. For the same compound, the Peri-anal fistula healing entry in test [4] (animal 3688, LD55 with combinations of standard forms of treatment, two weeks) is “nearly resulted in the fistula healing and closing”. Further, the “Inflammatory component of pathology (redness/itching, discomfort)” value in [4] (dogs, 1% lotion, all treated animals except two dogs with unknown outcome) is recorded as “marked improvement”; in test [5] (cats, 1% lotion) it was “marked improvement”. Besides, the “Time for redness to disappear” value in test [5] (animal 255, severe allergies, ears and face, applied twice a day) was no more than 24 h. In addition, the “Ability to prevent brain inflammation and plaque accumulation” value in test [6] is recorded as “effective”.
On to `COc1ccc(/C=C/c2cccc(OC)c2)cc1` [6r, (E)-3,4′-Dimethoxystilbene], for which the 50% inhibitory concentration (IC50) with NF-κB [1] (setting [8]) came to 600 ± 100 nM. For the same compound, in the test with NF-κB [1], the “Activity as inhibitor” value is given as “especially active; also recorded: highly active”.
The matching figures for `COc1ccc(/C=C/c2ccc(O)c(O)c2)cc1` [6x, (E)-3,4-Dihydroxy-4′-methoxystilbene]: 600 ± 400 nM and “considerably more active than resveratrol”.
As to `O=C(/C=C/c1ccncc1)/C=C/c1ccncc1` [reference compound], the IC50 worked out at 3900 ± 300 nM with NF-κB [1] (TNFα-induced activation of NF-κB, Panomics reporter screening cells, read-out: NFκB IC50 (Tables 1A and 2A)); 8200 ± 300 nM in the test on AP-1 (AP1, TPA-induced activation of AP-1, Panomics reporter screening cells, read-out: AP-1 IC50 (Tables 1A and 2A)).
Take `Oc1ccc(/C=C/c2cc(O)cc(O)c2)cc1` [resveratrol, 3,4′,5-trihydroxystilbene, reference compound]: the IC50 in the test with NF-κB [1] (setting [8]) was determined as 20000 ± 3000 nM. Further, the “Inhibition of LPS-induced COX-2 mRNA” value in the test with COX-2 mRNA (4 μM) is listed as “about 50%”. The “Suppression of LPS-induced COX-2 mRNA” value in the test on COX-2 mRNA (20 μM) was “markedly suppressed”. Also, the “Effect on TPA-induced AP-1 activation, in words” value in the test with AP-1 (293T/AP-1-luc cells, TPA 10 ng/ml, 24 hours) was “activated”.
For the compound `C(=Cc1ccccc1)c1ccccc1` [stilbene], the “Inhibition of TNF-induced activation of NF-κB” value in the test on NF-κB [7] was “inactive”.

A word on the IC50: it is the midpoint of a concentration-inhibition curve.
